SMILES	melting point [°C]
COCN1c2cc(C(=O)OC)ccc2Sc2nccnc21	151 to 152
CC(=O)C(O)C1OC(n2cc(C#N)c(=O)[nH]c2=O)CC1C(C)=O (stereo not given)	160 to 162
COCCNC(=O)Cc1c(-c2ccc(C)cc2)nc2[nH]c3ccccc3n12	189 to 190
Cc1cc(O)c(S(C)(=O)=O)cc1C(=O)N=C(N)N	> 260
COC(=O)CSc1cccc(NC(=O)NCC(=O)N(CC(=O)OC(C)(C)C)c2ccccc2C(=O)c2ccccc2)c1	131 to 133
NCC1(O)CCCc2c1ccc1c2OCO1 (stereo not given)	140 to 142
O=C1c2ccccc2C(=O)N1CC1CCc2cccnc2O1 (stereo not given)	152 to 158
NC(=O)c1nn(C2OC(CO)C(O)C2O)nc1C(N)=O (stereo not given)	210 to 212
COc1ccc(-c2coc3c(C)c(O)ccc3c2=O)cc1OC	234
Cn1cc(C(=O)NCCCO)c(Nc2ccc(Br)cc2F)cc1=O	78 to 83
CCCCOc1nc(N)c2nc(OC)n(CCNc3cccc(CC(=O)OC)c3)c2n1	119 to 120
C[C@H](N=C(C(N)=O)C(C)(C)C)c1ccccc1	100 to 101
Fc1ccc(N2CCN(CCCc3[nH]nc4c3CCCC4)CC2)cc1	106 to 108
Cc1c2c(cc(=O)n1CC(C)O)CCC(c1ccccn1)C2 (stereo not given)	300
CCOC(=O)CCCNc1cc(OC)c(OC)cc1C(C)=O	74 to 76
CCCCNC(=O)Nc1cc(Cl)ccc1C(=O)NCC1CCN(C(c2ccccc2)c2ccccc2)CC1	195 to 197
NNC(=O)N(O)C1c2ccccc2Oc2ccccc21	186
CCCCNc1c([N+](=O)[O-])cc(C)cc1[N+](=O)[O-]	52
COc1nn2ccccc2c1C(C)=O	158
CC(C)c1ccc(C(=O)C23CC4CC(CC(C4)C2)C3)c(C(C)C)c1OS(N)(=O)=O	165 to 167
CCCCC[C@H]1CC[C@H](c2ncc(-c3ccc(CCCC)cc3)cn2)CC1	87
CC(Cc1c[nH]c2ccccc12)(NC(=O)OC1C2CC3CC(C2)CC1C3)C(=O)NCC(=NOCC(=O)O)c1ccccc1 (stereo not given)	138 to 142
CCOC(=O)c1c(C(C)C)c2n(c1-c1ccc(F)cc1)CCCC2	76 to 78
CN(c1ccccc1)c1cc(NCc2ccco2)c(C(=O)O)cc1S(N)(=O)=O	145
Cc1nc(C(C)C)nc(C)c1N1CCCn2c1nc1c(Cl)ccc(C(OC(F)F)C(F)(F)F)c12 (stereo not given)	204 to 206

SMILES	melting point [°C]
O=C(CCl)Nc1ccc2ncnc(Nc3cccc(I)c3)c2c1	> 300
O=C1COCCN1c1ccc([N+](=O)[O-])cc1	150 to 152
CCCCCCCN(CC)C(=O)CCC(=O)c1ccc(NS(C)(=O)=O)cc1	100 to 102
CC(=O)c1nc2cc(C)c(F)cc2s1	152 to 153
CS(=O)(=O)c1ccc(-c2nc(C(F)(F)F)[nH]c2-c2ccc3ccccc3c2)cc1	228 to 230
COC(=O)c1cc(C(=O)OC)cc(S(N)(=O)=O)c1	148 to 150
Cc1c(C(=O)Nc2ccc(OCC(C)(C)C)c(C#N)c2)cnn1C1CCCCC1	126 to 128
O=C1c2cc(Cl)c(Cl)cc2C(O)N1CCCl (stereo not given)	147 to 149
CCOC(=O)CCCCOc1ccc(N2CCN(c3ccncc3)CC2)cc1	79 to 82
COc1cc2ncnc(N3CCN(C(=O)Nc4ccncc4)CC3)c2cc1OC	141 to 143
CCOCc1nc2c(N)nc3cc(OCCCN4CCCC4=O)ccc3c2n1CCCCN1CCCS1(=O)=O	142 to 144
COC(=O)c1c(F)cc(OCCNC(=O)C2Cc3ccccc3N2S(=O)(=O)c2ccc(-c3ccc(F)cc3F)cc2)cc1F (stereo not given)	69 to 77
CCOc1nn(-c2cc(C(F)(F)F)ccn2)cc1CCCOc1cccc(OC(C)(C)C(=O)O)c1	98 to 99
OCCCCOc1nc(F)c(Cl)cc1Cl	38 to 39
CCC(=O)C1(Nc2ccccc2)CCN(CCc2cccs2)CC1	127
CCC1(CC(=O)O)OCCc2nc(-c3ccccc3)sc21 (stereo not given)	106 to 108
COc1cc(C(=O)NS(=O)(=O)c2ccccc2C)ccc1Cc1cccc2ccc(NC(=O)CC3CCCC3)cc12	248 to 249
CSCc1c(Cl)ccc(C(=O)c2cnoc2C2CC2)c1SC	79.9 to 80.5
NNC1=NCCc2ccccc21	55 to 57
Fc1nc(F)c(F)c(F)n1	104
COC(=O)C(Oc1ccc(F)cc1)c1ccc(Oc2ccc(S(C)(=O)=O)cc2)cc1 (stereo not given)	135 to 137
CN(N)C(=S)Nc1ccc(F)cc1	148 to 150
Cc1cn(C(C)C(N)=O)nc1-c1ccccc1 (stereo not given)	99 to 101
COc1cc(C)c(C(=O)c2c(C(F)(F)F)ccnc2OC)cc1OC	125 to 127
COc1cc2c(Nc3ccc(Cl)cc3F)c(C#N)cnc2cc1OCc1ccccc1	241 to 243

SMILES	melting point [°C]
C=C(CCCCCCCCCCCCCCCC)CC(CO)CO	64 to 65
Oc1cc(-n2cc3c(n2)CCCC3)c(Cl)cc1Cl	84 to 86
C[C@H](CN1CC=C(c2cccs2)CC1)Nc1ccccn1	63 to 68
CC(C)(C)Oc1cccc(C(=O)Nc2ccc(OCCN3CCOCC3)c3ccccc23)c1	135 to 136
CS(=O)(=O)Nc1ccc(C#N)cc1Nc1ccc(F)cc1F	167 to 169
CCCn1c(=O)c2[nH]c(-c3ccoc3)nc2n(CCC)c1=O	244 to 245
COC(=O)c1ccccc1-c1ccc(CNc2nc(Cl)nc3ccsc23)cc1	177 to 182
CCOC(=O)c1nc(NC(C)=O)sc1Cc1ccc(SC)cc1	205 to 206
OCc1ccc(-c2cn(Cc3ccccc3)c3ccccc23)cc1	122
O=C(CCC(=O)N1CCC(c2ccc(Cl)cc2)CC1)c1ccc2c(c1)CCN(C1CCCCC1)CC2	128 to 130
O=C1Nc2ccc(O)cc2Sc2ccccc21	265 to 267
CCc1nnc2nc(-c3ccccc3)ccn12	246 to 247
CC1=c2c(cc3c(c2C)C=C(C(=O)OCc2ccccc2)N=3)N=C1C(=O)OCc1ccccc1	197 to 200
CCOC(=O)C(O)=Cc1cc(OCc2ccccc2)ncn1	136 to 137
Cc1nc(NC(=O)c2ccccc2)sc1C(=O)NCc1ccccc1F	180 to 183
CSc1sc(C(=O)N(C)C)c2c1C(=O)CC(C)(C)C2	135 to 136
O=S(=O)(N[C@H]1CC[C@H](CCN2CCC(c3cccc4c3CCO4)CC2)CC1)c1ccccc1	130
CC(C)(C)OC(=O)c1cccc(NC(N)=O)c1	230 to 232
Cc1ccc(Cl)c(C(=O)c2ccc(Cl)cc2)c1Cl	132 to 136
CC1(C)NC(=O)N(c2ccc(Oc3ccccc3)cc2)C1=O	165
CCCCN(CCCC)CCCOc1ccc(S(=O)(=O)c2c(C(C)C)n(C)c3ccccc23)cc1	90
CCOc1cc2ncc(C#N)c(Nc3ccc(Sc4ccccc4)c(Cl)c3)c2cc1OCC	88 to 94
O=C(Cc1ccc2nc(CCCOc3cccc(CN4CCCC4)c3)[nH]c2c1)N1CCCC1	68
Cc1cc(Oc2ncc(C(F)(F)F)cc2Cl)nn1C(=O)OC(C)(C)C	90 to 92
CCOC(=O)CCc1cn(-c2ccc([N+](=O)[O-])cn2)nc1C(C)C	90 to 91

SMILES	melting point [°C]
CCc1[nH]n(C2CCCC2)c2nc(Cc3ccncc3)nc(=O)c1-2	162 to 164
CS(=O)c1c(C(=N)NO)nn(-c2c(Cl)cc(C(F)(F)F)cc2Cl)c1N (stereo not given)	225 to 226
O=C1NC(=O)C(c2ccc(Cl)c(Cl)c2)N1 (stereo not given)	223 to 225
N#Cc1ccc(OCc2ccsc2)cc1OC(C(=O)O)c1ccccc1C(F)(F)F (racemic)	38 to 40
CC(C)C[C@H](NC(=O)O[C@H]1CCOC1)C(=O)O	94.9 to 96
C#CCSc1nc(Cl)cc(Cl)n1	67 to 70
NCc1ccc2c(c1)ncn2-c1cccc(-c2cccnc2)c1	107 to 110
CCc1nc2c(cnn2CC)c(NC2CCOCC2)c1CN(Cc1ccc(OC)c(-c2cccc(CN3CCN(C)CC3)c2)c1)C(=O)c1cccc(C(N)=O)c1	120 to 123
C=C(c1ccc(OC)cc1)c1cc(C(=C)c2ccc(OC)cc2)cc(C(=C)c2ccc(OC)cc2)c1	116 to 118
O=c1[nH]c(=O)n(CCCCN2CCC(OC(c3ccccc3)c3ccccc3)CC2)c2ccccc12	131 to 133
COc1cc(Nc2c(C#N)cnc3ccc(-c4csc(C=O)c4)cc23)c(Cl)cc1Cl	233 to 237
CC1(C)c2ccc(C(F)CN3CCN(c4nsc5ccccc45)CC3)cc2C(C)(C)C1O (stereo not given)	49 to 54
Cc1ccc(-n2nc(C(=O)CCCO[N+](=O)[O-])cc2-c2ccc(S(C)(=O)=O)cc2)cc1	107 to 109
C=CCOc1ccc2cc(O)ccc2c1	92 to 93
CN(c1ccc(C(=O)O)cc1)c1cc2c3c(c1)CCCC3(C)CCC2	257 to 258
Cc1sc(-c2ccccc2)nc1COc1ccc(C#N)cn1	124 to 125
O=c1c(Cl)c(OCc2ccc(F)cc2F)ccn1Cc1cccc2cnccc12	235 to 238
O=C(O)c1cn(CC2CCCCC2)c2cc(Cl)ccc12	170 to 172
Cc1cc(C)c(CC(=O)O)c(C#N)c1	155 to 157
CCN(CC)CCOc1cccc2c1c1cc(F)ccc1n2Cc1ccc(F)cc1	75 to 76
Cc1cc(C(=O)N(C2CCCCC2)C2CCCC2)ccc1Cn1cnc2cccnc21	181 to 182
C[C@@H](CN1C(=O)c2ccccc2C1=O)CC(F)(F)F	45 to 47
Cc1nccc(CO)c1OCc1ccccc1	130 to 131
COC(=O)COc1ccc(NC(=O)NC(=O)c2ccc(C#N)cc2)cc1	214 to 217
Cc1ccn(-c2ccc(C(=O)c3cccc4c3Nc3ncccc3CN4)c(F)c2)n1	122 to 125
